US9657022B2, “7-OXO-1,6-diazabicyclo[3.2.1]octane derivatives and their use as antibacterial agents” (WOCKHARDT LIMITED, priority 2014, dated 2017)

What was measured:
[1] = system: E. coli M50; test: Zone of inhibition, agar well, with and without ceftazidime; assay type: cell-based; conditions: E. coli M50
Method: (§1) In a typical experiment, two sets of plates containing growth media (Molten Mueller Hilton Agar) and bacterial strains were prepared. One set of plates was taken as control (without ceftazidime) and other set contained ceftazidime. The media was allowed to solidify and wells were punched later, into which varying concentrations of compounds according to the invention were poured. A two-fold serial dilution range of each of the compounds according to invention was prepared and 50 μl of each of the dilution was added into the punched well. The plates were then incubated at 37° C. for 18 hours in BOD incubator and diameters of zone of inhibition were measured after the completion of the incubation.
(§2) The Table 6 provides the antibacterial activity of the combination comprising compounds according to invention and ceftazidime. The compounds according to invention were tested at 0.12, 0.25, 0.5 and 1 μg/well.

[2] = system: E. coli NCTC 13353; test: as above; assay type: cell-based; conditions: E. coli NCTC 13353
Method: as §1, §2

[3] = compound 0.25 μg/well + Ceftazidime 10 μg/ml
[4] = compound 0.5 μg/well + Ceftazidime 10 μg/ml
[5] = compound 1 μg/well + Ceftazidime 10 μg/ml
[6] = compound […] + Ceftazidime 10 μg/ml

With `O=C(C[C@@H]1CCCN1)NNC(=O)[C@@H]1CC[C@@H]2CN1C(=O)N2OS(=O)(=O)O` [Example 1, (2S,5R)-Sulfuric acid mono-{2-[N′-(2-(S)-pyrrolidin-2-yl-acetyl)-hydrazinocarbonyl]-7-oxo-1,6-diaza-bicyclo[3.2.1]oct-6-yl}ester] the “Diameter of Zone of Inhibition, Compound + Ceftazidime (10 μg/ml)” value (shortened to “Diameter of Zone of Inhibition”) [1, 3] was 19 mm, the “Diameter of Zone of Inhibition” value [1, 4] was 20.5 mm and the “Diameter of Zone of Inhibition” value [1, 5] was 22.5 mm. For the same compound, the “Diameter of Zone of Inhibition” value [1, 6] was 17 mm, the zone of inhibition at […] ([1]; Escherichia coli, compound alone, 0.12 μg/well, read-out: Diameter of Zone of Inhibition, Compound) was 10.5 mm and the zone of inhibition at 0.25 µg/disc ([1]; Escherichia coli, compound alone, 0.25 μg/well, read-out: Diameter of Zone of Inhibition, Compound) was 14 mm. The zone of inhibition at 0.5 µg/disc ([1]; Escherichia coli, compound alone, 0.5 μg/well, read-out: Diameter of Zone of Inhibition, Compound) was 16 mm, the zone of inhibition at 1 µg/disc ([1]; Escherichia coli, compound alone, 1 μg/well, read-out: Diameter of Zone of Inhibition, Compound) was 18 mm and the “Diameter of Zone of Inhibition” value [2, 3] was 26 mm. The “Diameter of Zone of Inhibition” value [2, 4] was 28 mm, the “Diameter of Zone of Inhibition” value [2, 5] was 31 mm and the “Diameter of Zone of Inhibition” value [2, 6] was 22 mm. The zone of inhibition at […] ([2]; Escherichia coli, NCTC13353, compound alone, 0.12 μg/well, read-out: Diameter of Zone of Inhibition, Compound) was 11.5 mm, the zone of inhibition at 0.25 µg/disc ([2]; Escherichia coli, NCTC13353, compound alone, 0.25 μg/well, read-out: Diameter of Zone of Inhibition, Compound) was 14 mm and the zone of inhibition at 0.5 µg/disc ([2]; Escherichia coli, NCTC13353, compound alone, 0.5 μg/well, read-out: Diameter of Zone of Inhibition, Compound) was 15 mm. It also gave a zone of inhibition at 1 µg/disc ([2]; Escherichia coli, NCTC13353, compound alone, 1 μg/well, read-out: Diameter of Zone of Inhibition, Compound) of 16.5 mm.
